One assay deals with Smad1. Description: Smurf1-induced Smad1 degradation in C2C12 cells transfected with Smad1 and Smurf1. The format is cell-based. The settings on record: 24 h. How it is done:
Effects of proteasome inhibitors on steady-state levels of Smad1 protein were examined in C2C12 cells. C2C12 cells were plated in 6-well culture plates at density of 2×10^5 cells/well and cultured with DMEM supplemented with 10% FCS for 24 h. The cells were then transfected with Smad1 and Smurf1 expression plasmids. 24 h after transfection, the cells were treated with different proteasome inhibitors at different concentrations and incubated for additional 24 h.

The next assay has as its system endogenous Smad1. The assay can be described thus: Steady-state levels of endogenous Smad1 in C2C12 cells, Western blot. The format is cell-based. The settings on record: 24 hours, vs control. How it is done:
To determine the effects of proteasome inhibitors on the steady-state levels of endogenous Smad1 protein, C2C12 cells were plated in 6-well culture plates (2×10^5 cells/well) and cultured with DMEM supplemented with 10% FCS. 24 h later, proteasome inhibitors lactacystin (10 μM), MG-132 (2.5 and 5 μM), PS-1 (25 and 50 nM) were added into C2C12 cells. The cells were cultured with the proteasome inhibitors for 24 hours and then the cell lysates were extracted. The steady-state levels of endogenous Smad1 were analyzed by Western blot using Smad1 antibody (Santa Cruz).
For orientation: In western blotting, separated proteins are transferred to a membrane and probed.

For a further assay, the system named is BMP-4 mRNA. The assay can be described thus: BMP-4 mRNA expression, MG-63 cells. The format is cell-based. The settings on record: cultured human MG-63 osteoblastic cells. How it is done: (§1) 2T3 murine osteoblast precursor cells and MG-63 human osteoblastic cells were cultured with α minimal essential medium (αMEM) supplemented with 10% fetal calf serum (FCS).
(§2) MG-63 cells were plated in T-150 flasks at density of 2×10^6 cells per flask for RNA extraction. Total RNA was extracted from MG-63 cells using RNAzol B method (Tel-test Inc., Houston, Tex.). Enrichment of polyadenylated RNA was obtained using Stratagene oligo(dT) cellulose columns (Stratagene, San Diego, Calif.). 5 μg of poly (A^+) RNA was denatured in 2.2 M formaldehyde and 50% fornamide and run on an 1% agarose gel containing 2.2 M formaldehyde. The gels were transferred to a Nytran filter (Schleicher and Schuell, Keene, N.H.) by capillary blotting with 20× SSC (1× SSC=150 mM NaCl, 15 mM Na Citrate, pH 7.0). The RNA was then cross-linked to the filter by UV irradiation (Stratalink, Stratagene, San Diego, Calif.). Prehybridization was carried out at 56° C. in 5× SSC containing 50% formamide and 150 μg/ml of denatured salmon sperm DNA. After 1-2 h prehybridization, the DNA probes were added to the hybridization solution at a concentration of 5×10^5 cpm/ml. Hybridization was carried out for 15 h at 56° C. […] The filters were dried at room temperature, exposed at −70° C. overnight and then quantitated in cpm using an AMBIS Image Acquisition and Analysis System (AMBIS, San Diego, Calif.).

Assay [1] deals with Gli3 precursor protein (Gli3^190). The assay can be described thus: Gli3 precursor (Gli3^190) degradation in C3H10T1/2 cells, Western blot. The format is cell-based, mouse. The settings on record: IBMX 200 μM. How it is done: (§3) Full-length human Gli3 expression plasmid (pact-Flag-Gli3) was kindly provided by Dr. Shunsuke Ishii (Dai, P., et al., J. Biol. Chem. (1999) 274:8143-8152). The molecular weights for expressed Gli3 proteins by transfection of full-length Gli3 cDNA is about 190 kd (Gli3^190) and the processed form of Gli3 is about 85 kd (Gli3^85).
C3H10T1/2 multipotent progenitor cells were cultured with RPMI […] medium. The medium was purchased from Sigma (St. Louis, Mo.) and supplemented with 10% fetal calf serum (FCS). C3H10T1/2 cells were plated in 6-well culture plates at the density of 2×10^5 cells/well and transfected with Flag-Gli3 (2 μg/well) and treated with IBMX (200 μM) in the presence or absence of 10 and 20 nM of epoxomicin. Gli3^190 protein expression was detected by Western blot using anti-Flag antibody.

The next assay relates to BMP-2 mRNA. The assay can be described thus: BMP-2 mRNA expression, Northern blot, MG-63 cells. The format is cell-based. To be noted: cultured human MG-63 osteoblastic cells. How it is done:
as §1, §2

The test system of assay [2] is murine BMP-2 promoter (−2712/+165). The assay can be described thus: BMP-2 promoter-luciferase assay in stably transfected 2T3 cells. The format is cell-based. How it is done:
as §1
The cells were plated in 96-well culture plates and cultured for 24 h. The cells were then treated with different proteasome inhibitors or other compounds for additional 24 h. The cell lysates were extracted and luciferase activities were measured by a luciferase assay kit (Promega, Madison, Wis.) using a Luminometer.

Assay [3] relates to neonatal murine calvarial bones. The assay can be described thus: Organ culture of neonatal murine calvarial bones, bone formation. The format is cell-based, ICR Swiss mice. To be noted: for effect on osteoblast differentiation and bone formation after transfection of trGli3: calvariae transfected with trGli3, epoxomicin 20 nM, 3 days, histology. How it is done:
Organ cultures of neonatal murine calvarial bones were used as described by Traianedes, K., et al., Endocrinology (1998) 139:3178-3184. Bones were removed from the calvaria of 4-5 day old ICR Swiss mice and cultured in BGJ medium with 0.1% BSA for 72 hours together with test compounds. Mouse noggin/FC chimera was purchased from R&D Systems, Stillwater, Minn., and added at 2 μg/ml.
Neonatal murine calvariae were transfected with either empty vector or truncated Gli3 (trGli3) using lipofectamine plus reagents for the first 24 hours and then treated with epoxomicin (20 nM) for the remaining 3 days of the assay according to Traianedes, et al., 1998 (supra).

For a further assay, the system named is BMP-2 protein. Description: BMP-2 protein production by ELISA, MG-63 cell lysates. The format is cell-based. The settings on record: cultured human MG-63 osteoblastic cells, 24 h. How it is done: MG-63 cells were plated in 12-well culture plates at the density of 2.5×10^5 cells/well and cultured with αMEM supplemented with 10% FCS for 24 h. The cells were treated with the proteasome inhibitors epoxomicin and PSI for 24 h. After incubation, the cell lysates were extracted with 150 μl lysis buffer (50 mM TrisHCl pH 8.0, 150 mM NaCl, 1% NP40) with protease inhibitors. The lysates were used to measure the BMP-2 protein production by ELISA.
For protein production, 96-well Dynatech white plates were coated with mouse anti-hBMP-2 monoclonal antibody (raised against rhBMP-2) at 1 μg/ml in PBS (100 μl/well) and incubated overnight at 4° C. The following procedures were performed at room temperature. The plates were washed 3 times with 300 μl of PBS-T wash buffer (PBS and 0.05% Tween) and then blocked with 300 μl 0.2% I-Block solution (0.2% I-Block in PBS-T, Applied Biosystems) for 2 h. 100 μl cell lysates were then added and incubated with coated antibody for 2 h. […] After 3 time washing with wash buffer and 3 time washing with assay buffer, the plates were incubated with 100 μl Tropix enzyme substrate (Applied Biosystems) in dark for 10 min and then read light emission with a Luminometer. rhBMP-2 (R&D) was used to generate the standard curve.

For a further assay, the system named is Gli3. The assay can be described thus: Gli3 processing in 293 cells transfected with Flag-Gli3, Western blot. The format is cell-based, human. The settings on record: for band of short form Gli3^85: FIG. 2a. How it is done: as §3
293 cells were plated in 6-well culture plates and cultured with Dulbecco's modified Eagle's medium (DMEM, Sigma). 24 hours after plating, the cells were transiently transfected with Flag-Gli3 cDNA (1 μg/well) and treated with 3-isobutyl-1-methylxanthine (IBMX, 200 μM) in the presence or absence of 1, 10 and 100 nM epoxomicin or PS-1. The steady-state protein levels of Gli3 precursor protein (Gli3^190) or processed form of Gli3 (Gli3^85) were detected by Western blot using anti-Flag antibody.

[4] abbreviates: noggin 2 μg/ml, 72 hours culture.

Peptide text beside a SMILES is read from it. * marks the point of attachment. Cbz = O=C(OCc1ccccc1)*

With `CC(=O)N[C@@H](CSC(=O)[C@]1([C@@H](O)C(C)C)NC(=O)[C@H](C)[C@@H]1O)C(=O)O` [lactacystin], in the assay with Smad1 (C2C12 cells, 10 μM), the “Smurf1-induced Smad1 degradation” value was “partially or completely reversed”. Moreover, in the assay with endogenous Smad1 (10 μM), the “increase of endogenous Smad1 protein level” value worked out at 3.7 fold.
In the case of `CC(C)C[C@@H](C=O)NC(=O)[C@H](CC(C)C)NC(=O)[C@H](CC(C)C)NC(=O)OCc1ccccc1` [MG-132] (Cbz-Leu-Leu-Leu-aldehyde), the “Smurf1-induced Smad1 degradation” value with Smad1 (C2C12 cells, 5 μM) is on record as “partially or completely reversed”. Further, in the assay on endogenous Smad1 (5 μM), the “increase of endogenous Smad1 protein level” value is listed as 6.5 fold.
As to `CC[C@H](C)[C@H](NC(=O)[C@H]([C@@H](C)CC)N(C)C(C)=O)C(=O)N[C@H](C(=O)N[C@@H](CC(C)C)C(=O)[C@@]1(C)CO1)[C@@H](C)O` [epoxomicin], in the assay on BMP-4 mRNA, the “expression of BMP-4 mRNA” value is listed as “no effect”. Moreover, in the assay on Smad1 (C2C12 cells, 10, 20 and 40 nM, FIG. 5c), the “Smurf1-induced Smad1 degradation” value was “partially or completely reversed”. Also, the “degradation of Gli3 precursor protein (Gli3^190)” value in assay [1] is “prevent the degradation”. Moreover, in the assay with BMP-2 mRNA, the “BMP-2 mRNA expression” value was “increased”. The “potency as stimulators of BMP-2 expression compared with the statins” value in assay [2] is listed as “considerably more potent”. The “luciferase activity (BMP-2 promoter)” value in assay [2] (treated 24 h) was “increased”. In addition, in assay [3] (72 hours culture), the “bone formation in calvarial cultures” value is “bone stimulating effects”. The “effect on osteoblast differentiation and bone formation after transfection of trGli3” value in assay [3] is reported as “impaired markedly”. In the assay on BMP-2 protein, the BMP-2 protein expression entry is given as “increased”. The entries for the “band of short form Gli3^85” value with Gli3 (1 nM epoxomicin) and in the assay with Gli3 (10 nM epoxomicin) were “substantially reduced” and “abolished”, respectively. For the same compound, the “Gli3 processing to its processed shorter form” value in the assay with Gli3 (IBMX 200 μM) is “impaired”.
Take noggin: in assay [3] (setting [4]), the “effect of noggin on bone formation stimulated by aFGF” value was “no effect”, the “effect of noggin on bone stimulating effect of BMP-2” value is reported as “inhibited”, the “effect of noggin on bone stimulating effect of PS-1” value was “inhibited” and the “effect of noggin on bone stimulating effect of epoxomicin” value was “inhibited”.
In the case of “aFGF: acidic fibroblast growth factor, unrelated anabolic agent”, in assay [3] (72 hours culture), the “bone formation in calvarial cultures” value is “bone formation stimulated”. Also, the “effect on osteoblast differentiation and bone formation after transfection of trGli3” value in assay [3] is on record as “no effect”.

These data come from patent publication US20030092603A1, “Identification of specific modulators of bone formation” (priority 2001, published 2003).
